Values quoted from earlier work, collected in patent US20240245628A1, “COMPOSITIONS AND METHODS FOR HEALTH COMPRISING CO-ENZYME Q10” (Bausch + Lomb Ireland Limited, priority 2023, published 2024).

Settings: at levels as high as 800.0 mg

## vitamin E
  adverse effects of vitamin E: No adverse effects
